Reference: ChEMBL document CHEMBL1142720, “Fluoro-olefins as peptidomimetic inhibitors of dipeptidyl peptidases” (J Med Chem, 2005)

target: Dipeptidyl peptidase 4 (Homo sapiens, UniProt P27487); experiment: Inhibitory concentration against human Dipeptidylpeptidase IV
Sequence (P27487 whole entry): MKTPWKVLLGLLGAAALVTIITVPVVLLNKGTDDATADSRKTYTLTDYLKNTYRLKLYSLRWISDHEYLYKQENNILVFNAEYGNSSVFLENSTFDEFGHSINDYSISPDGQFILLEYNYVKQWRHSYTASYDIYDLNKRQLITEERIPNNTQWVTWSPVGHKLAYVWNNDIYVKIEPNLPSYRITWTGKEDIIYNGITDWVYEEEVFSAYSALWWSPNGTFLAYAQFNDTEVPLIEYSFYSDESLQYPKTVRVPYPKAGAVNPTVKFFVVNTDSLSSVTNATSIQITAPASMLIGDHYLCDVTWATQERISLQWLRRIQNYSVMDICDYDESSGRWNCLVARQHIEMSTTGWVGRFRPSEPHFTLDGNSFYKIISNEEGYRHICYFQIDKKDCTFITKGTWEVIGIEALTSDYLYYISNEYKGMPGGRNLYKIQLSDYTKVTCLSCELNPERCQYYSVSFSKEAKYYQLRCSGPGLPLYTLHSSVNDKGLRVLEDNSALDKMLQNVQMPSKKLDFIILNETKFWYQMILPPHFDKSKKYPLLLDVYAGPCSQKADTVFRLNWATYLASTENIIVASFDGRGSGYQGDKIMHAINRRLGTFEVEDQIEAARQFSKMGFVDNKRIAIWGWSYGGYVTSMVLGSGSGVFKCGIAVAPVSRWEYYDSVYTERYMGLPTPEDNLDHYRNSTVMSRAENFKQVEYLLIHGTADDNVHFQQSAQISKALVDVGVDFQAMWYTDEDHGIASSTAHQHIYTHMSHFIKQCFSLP

IC50 [µM]	SMILES
> 1000	CN(C)CCCNCC(F)=C1CCCC1
> 1000	S=C(CNC1CCCCC1)N1CCCCC1
> 500	N#CC1CCC/C1=C(\F)CNCc1ccc(F)cc1 (centres undefined)
> 1000	FC(CNC1CCNCC1)=C1CCCCC1
> 1000	O=C(CNCc1ccccc1)N1CCCCC1
> 125	FC(CNCc1cccc(C(F)(F)F)c1)=C1CCCCC1
> 250	FC(CNC1CCN(Cc2ccccc2)CC1)=C1CCCCC1
> 1000	C(CNCc1ccccc1)=C1CCCC1
> 250	C(CNCc1ccc2c(c1)OCO2)=C1CCCC1
> 1000	FC(CNCc1ccccc1)=C1CCCCC1
148	O=C(CNC1CCCCC1)N1CCCC1
> 1000	S=C(CNCc1ccc2c(c1)OCO2)N1CCCCC1
> 125	CN1CCC(NCC(F)=C2CCCCC2)CC1
> 1000	O=C(CNC1CCCCC1)N1CCCCC1
> 250	COc1ccc(CNCC(F)=C2CCCCC2)cc1
> 1000	FC(CNCc1ccc(F)cc1)=C1CCCC1

IC50 [µM]	SMILES
> 1000	S=C(CNCc1ccccc1)N1CCCCC1
1000	O=C(CNCc1ccccc1)N1CCCC1
> 250	FC(CNc1ccccc1)=C1CCCCC1
> 250	FC(CNCc1ccc(F)cc1)=C1CCCCC1
> 1000	CN(C)CCCNCC(F)=C1CCCCC1
> 1000	O=C(CNCc1ccc2c(c1)OCO2)N1CCCCC1
> 250	FC(CNC12CC3CC(CC(C3)C1)C2)=C1CCCCC1
> 1000	N#CC1CCC/C1=C(/F)CNCc1ccc(F)cc1 (centres undefined)
> 1000	O=C(CNCc1ccc2c(c1)OCO2)N1CCCC1
> 1000	COc1ccc(CNCC(F)=C2CCCC2)cc1
> 250	FC(CNCc1ccc2c(c1)OCO2)=C1CCCCC1
> 250	FC(CNC1CCN(Cc2ccccc2)CC1)=C1CCCC1
> 1000	FC(CNCc1ccccc1)=C1CCCC1
> 500	FC(CNC1CCCCC1)=C1CCCCC1
> 1000	FC(CNCCc1ccccn1)=C1CCCC1
> 1000	FC(CNC1CCCCC1)=C1CCCC1

SMILES	IC50 [µM]
FC(CNCCc1ccccc1)=C1CCCCC1	> 1000
N#CC1CCC/C1=C(\F)CNCCc1ccccc1 (centres undefined)	> 1000
FC(CNCCc1ccccc1)=C1CCCC1	> 1000
N#CC1CCC/C1=C(/F)CNCCc1ccccc1 (centres undefined)	> 500
C(CNC1CCCCC1)=C1CCCC1	> 1000

target: Dipeptidyl peptidase 2 (Homo sapiens, UniProt Q9UHL4); experiment: Inhibitory concentration against human Dipeptidylpeptidase II

IC50 [µM]	SMILES
397	O=C(CNCc1ccccc1)N1CCCCC1
276	O=C(CNC1CCCCC1)N1CCCC1
177	O=C(CNC1CCCCC1)N1CCCCC1
> 100	N#CC1CCC/C1=C(\F)CNC12CC3CC(CC(C3)C1)C2 (centres undefined)
500	O=C(CNCc1ccccc1)N1CCCC1
500	FC(CNC1CCCCC1)=C1CCCCC1
> 100	N#CC1CCC/C1=C(/F)CNC12CC3CC(CC(C3)C1)C2 (centres undefined)
